This note sets out measurements from patent US20250250269A1, “HETEROCYCLIC GLP-1 AGONISTS” (Gasherbrum Bio, Inc., priority 2022, published 2025).

T1 sequence (P43220 24-463, species assumed): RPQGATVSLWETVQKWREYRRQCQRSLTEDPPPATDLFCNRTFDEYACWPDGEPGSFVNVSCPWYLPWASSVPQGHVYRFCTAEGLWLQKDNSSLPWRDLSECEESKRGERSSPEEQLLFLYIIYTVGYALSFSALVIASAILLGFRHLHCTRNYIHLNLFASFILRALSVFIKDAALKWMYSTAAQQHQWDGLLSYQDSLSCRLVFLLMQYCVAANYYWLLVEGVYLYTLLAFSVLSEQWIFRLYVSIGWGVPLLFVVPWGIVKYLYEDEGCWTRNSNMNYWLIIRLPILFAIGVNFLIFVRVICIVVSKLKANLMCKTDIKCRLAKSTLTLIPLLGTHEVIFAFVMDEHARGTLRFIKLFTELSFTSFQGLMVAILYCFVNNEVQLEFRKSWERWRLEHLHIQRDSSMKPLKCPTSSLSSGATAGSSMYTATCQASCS

The assay concerns the target T1, GLP-1 Receptor (Homo sapiens, UniProt P43220).
T1 construct: host or cells: HEK293/CRE-Luc (HEK293/GLP1R/CRE-LUC)
Description: GLP-1R agonist cAMP stimulation assay (HEK293/GLP1R/CRE-LUC cells, Cisbio cAMP dynamic 2 kit). The class given is cell-based. The following applies: HEK293/CRE-Luc cells stably expressing the GLP-1 Receptor, 30 min at 37° C. As for the experimental part: Activation of GLP-1 receptor is known to stimulate cyclic AMP (cAMP) production in cells which indicates primary coupling to the Gas subunit of the G protein heterotrimeric complex.
To optimize functional activity directed toward Gas coupling, a HEK293/CRE-Luc cell line developed by HDB stably expressing the GLP-1 Receptor was used. 200× concentration of compound working solutions were prepared (Agilent Technologies Bravo) with ½ log serial dilution in 384-well Echo LDV plate (Labcyte, Cat #LP-0200). […] 200× concentration of compound working solutions were moved to 384-well white low volume plate (Greiner, Cat #784075) using Labcyte ECHO550. 1×10^5 cells/mL HEK293/GLP1R/CRE-LUC (HD Biosciences) cell suspensions prepared with assay buffer [DPBS containing 0.5 mM IBMX (Sigma, Cat #15879) and 0.1% BSA (GENVIEW, Cat #FA016-100g)], 10 μL cell suspensions were added to each well of previous generated assay plate which already contains […] compound at 200×concentration using ThermoFisher Multidrop Combi (1000 cells/well). Seal the plate and incubate at 37° C. with 5% CO2 for 30 min.
After incubation the cAMP assay signal was generated using cAMP dynamic 2 Kit (Cisbio). 5 μL cAMP-d2 working solution was added to each well, followed with 5 μL Anti-cAMP antibody-cryptate working solution added to each well using ThermoFisher Multidrop Combi. Incubate at room temperature for 1 hour protected from light. Read the fluorescence at 665 and 615 nm with Reader PerkinElmer EnVision.
On to `Fc1ccc(COc2cccc(C3CCN(Cc4nc5cc(-c6nnc(C(F)(F)F)[nH]6)ncc5n4C[C@@H]4CCO4)CC3)n2)c2c1OCO2` [Compound 17, (S)-2-((4-(6-((7-fluorobenzo[d][1,3]dioxol-4-yl)methoxy)pyridin-2-yl)piperidin-1-yl)methyl)-3-(oxetan-2-ylmethyl)-6-(5-(trifluoromethyl)-4H-1,2,4-triazol-3-yl)-3H-imidazo[4,5-c]pyridine], for which the 50% effective concentration (EC50) was below 1 nM.
`FC1(F)Oc2cccc(COc3cccc(C4CCN(Cc5nc6cc(-c7nnc(C(F)(F)F)[nH]7)ncc6n5C[C@@H]5CCO5)CC4)n3)c2O1` [Compound 18, (S)-2-((4-(6-((2,2-difluorobenzo[d][1,3]dioxol-4-yl)methoxy)pyridin-2-yl)piperidin-1-yl)methyl)-3-(oxetan-2-ylmethyl)-6-(5-(trifluoromethyl)-4H-1,2,4-triazol-3-yl)-3H-imidazo[4,5-c]pyridine]: the concentration giving a half-maximal response (EC50) is below 1 nM.
As for `[2H]C1([2H])Oc2cccc(COc3cccc(C4CCN(Cc5nc6cc(-c7nnc(C(F)(F)F)[nH]7)ncc6n5C[C@@H]5CCO5)CC4)n3)c2O1` [Compound 19, (S)-2-((4-(6-((benzo[d][1,3]dioxol-4-yl-2,2-d2)methoxy)pyridin-2-yl)piperidin-1-yl)methyl)-3-(oxetan-2-ylmethyl)-6-(5-(trifluoromethyl)-4H-1,2,4-triazol-3-yl)-3H-imidazo[4,5-c]pyridine], the EC50 is below 1 nM.
`FC(F)(F)c1nnc(-c2cc3nc(CN4CCC(c5cccc(OCc6nc7ccccc7s6)n5)CC4)n(C[C@@H]4CCO4)c3cn2)[nH]1` [Compound 20, (S)-2-(((6-(1-((3-(oxetan-2-ylmethyl)-6-(5-(trifluoromethyl)-4H-1,2,4-triazol-3-yl)-3H-imidazo[4,5-c]pyridin-2-yl)methyl)piperidin-4-yl)pyridin-2-yl)oxy)methyl)benzo[d]thiazole] yielded an EC50 below 1 nM.
The value for `Cc1ccc(COc2cccc(C3CCN(Cc4nc5cc(-c6nnc(C(F)(F)F)[nH]6)ncc5n4C[C@@H]4CCO4)CC3)n2)nn1` [Compound 21, 3-methyl-6-{[(6-{1-[(3-{[(2S)-oxetan-2-yl]methyl}-6-[5-(trifluoromethyl)-4H-1,2,4-triazol-3-yl]-3H-imidazo[4,5-c]pyridin-2-yl)methyl]piperidin-4-yl}pyridin-2-yl)oxy]methyl}pyridazine] was below 1 nM.
The value for `Fc1cn(C2CC2)nc1COc1cccc(C2CCN(Cc3nc4cc(-c5nnc(C(F)(F)F)[nH]5)ncc4n3C[C@@H]3CCO3)CC2)n1` [Compound 22, (S)-2-((4-(6-((1-cyclopropyl-4-fluoro-1H-pyrazol-3-yl)methoxy)pyridin-2-yl)piperidin-1-yl)methyl)-3-(oxetan-2-ylmethyl)-6-(5-(trifluoromethyl)-4H-1,2,4-triazol-3-yl)-3H-imidazo[4,5-c]pyridine] was 1 to 100 nM; that for `C[C@]1(c2ccc(Cl)cc2F)Oc2cccc(C3CCN(Cc4nc5cc(C(=O)O)ncc5n4C[C@@H]4CCO4)CC3)c2O1` [Compound 23, 2-((4-((S)-2-(4-chloro-2-fluorophenyl)-2-methylbenzo[d][1,3]dioxol-4-yl)piperidin-1-yl)methyl)-3-(((S)-oxetan-2-yl)methyl)-3H-imidazo[4,5-c]pyridine-6-carboxylic acid] was below 1 nM; that for `CNC(=O)c1cc2nc(CN3CCC(c4cccc5c4O[C@@](C)(c4ccc(Cl)cc4F)O5)CC3)n(C[C@@H]3CCO3)c2cn1` [Compound 24, 2-((4-((S)-2-(4-chloro-2-fluorophenyl)-2-methylbenzo[d][1,3]dioxol-4-yl)piperidin-1-yl)methyl)-N-methyl-3-(((S)-oxetan-2-yl)methyl)-3H-imidazo[4,5-c]pyridine-6-carboxamide] was below 1 nM.
The value for `C[C@]1(c2ccc(Cl)cc2F)Oc2cccc(C3CCN(Cc4nc5cc(C(=O)NCC(F)(F)F)ncc5n4C[C@@H]4CCO4)CC3)c2O1` [Compound 25, 2-((4-((S)-2-(4-chloro-2-fluorophenyl)-2-methylbenzo[d][1,3]dioxol-4-yl)piperidin-1-yl)methyl)-3-(((S)-oxetan-2-yl)methyl)-N-(2,2,2-trifluoroethyl)-3H-imidazo[4,5-c]pyridine-6-carboxamide] was below 1 nM.
Take `COCCNC(=O)c1cc2nc(CN3CCC(c4cccc5c4O[C@@](C)(c4ccc(Cl)cc4F)O5)CC3)n(C[C@@H]3CCO3)c2cn1` [Compound 26, 2-((4-((S)-2-(4-chloro-2-fluorophenyl)-2-methylbenzo[d][1,3]dioxol-4-yl)piperidin-1-yl)methyl)-N-(2-methoxyethyl)-3-(((S)-oxetan-2-yl)methyl)-3H-imidazo[4,5-c]pyridine-6-carboxamide]: the half-maximal effective concentration (EC50) was below 1 nM.
As for `C[C@]1(c2ccc(Cl)cc2F)Oc2cccc(C3CCN(Cc4nc5c(F)c(C(=O)O)ccc5n4C[C@@H]4CCO4)CC3)c2O1` [Compound 27, 2-((4-((S)-2-(4-chloro-2-fluorophenyl)-2-methylbenzo[d][1,3]dioxol-4-yl)piperidin-1-yl)methyl)-4-fluoro-1-(((S)-oxetan-2-yl)methyl)-1H-benzo[d]imidazole-5-carboxylic acid], the EC50 is below 1 nM.
The value for `O=C(O)c1cc2nc(CN3CCC(c4cccc(OCc5ccc(Cl)cc5F)n4)CC3)n(C[C@@H]3CCO3)c2cn1` [Compound 28, (S)-2-((4-(6-((4-chloro-2-fluorobenzyl)oxy)pyridin-2-yl)piperidin-1-yl)methyl)-3-(oxetan-2-ylmethyl)-3H-imidazo[4,5-c]pyridine-6-carboxylic acid] was below 1 nM.
`O=C(O)c1cc2nc(CN3CC=C(c4cccc(OCc5ccc(Cl)cc5F)n4)CC3)n(C[C@@H]3CCO3)c2cn1` [Compound 29, (S)-2-((6-((4-chloro-2-fluorobenzyl)oxy)-3′,6′-dihydro-[2,4′-bipyridin]-1′(2′H)-yl)methyl)-3-(oxetan-2-ylmethyl)-3H-imidazo[4,5-c]pyridine-6-carboxylic acid] gave an EC50 below 1 nM.
The value for `O=C(O)c1cc2nc(CN3CC=C(c4ccc(F)c(OCc5ccc(Cl)cc5F)c4)CC3)n(C[C@@H]3CCO3)c2cn1` [Compound 30, (S)-2-((4-(3-((4-chloro-2-fluorobenzyl)oxy)-4-fluorophenyl)-3,6-dihydropyridin-1(2H)-yl)methyl)-3-(oxetan-2-ylmethyl)-3H-imidazo[4,5-c]pyridine-6-carboxylic acid] was 1 to 100 nM; that for `COc1cc(Cl)ccc1COc1cc(C2=CCN(Cc3nc4cc(-c5nnc(C(F)(F)F)[nH]5)ncc4n3C[C@@H]3CCO3)CC2)ccc1F` [Compound 31, (S)-2-((4-(3-((4-chloro-2-methoxybenzyl)oxy)-4-fluorophenyl)-3,6-dihydropyridin-1(2H)-yl)methyl)-3-(oxetan-2-ylmethyl)-6-(5-(trifluoromethyl)-4H-1,2,4-triazol-3-yl)-3H-imidazo[4,5-c]pyridine] was below 1 nM; that for `NC(=O)c1nnc(-c2cc3nc(CN4CC=C(c5ccc(F)c(OCc6ccc(Cl)cc6F)c5)CC4)n(C[C@@H]4CCO4)c3cn2)[nH]1` [Compound 32, (S)-5-(2-((4-(3-((4-chloro-2-fluorobenzyl)oxy)-4-fluorophenyl)-3,6-dihydropyridin-1(2H)-yl)methyl)-3-(oxetan-2-ylmethyl)-3H-imidazo[4,5-c]pyridin-6-yl)-4H-1,2,4-triazole-3-carboxamide] was below 1 nM.

In general, EC50 refers to the concentration giving half of the maximal effect. The low end stands for an effect from little substance, the high end for a need for much substance.
